What was measured:
[1] = molecular target: DRAK2 (Homo sapiens (Human), UniProt O94768); test: DRAK2 kinase activity inhibition (ADP-Glo, MRCL3 peptide substrate); format: biochemical
Experimental: (§1) DRAK1 and DRAK2 recombinant proteins were purchased from SignalChem Inc. To measure the kinase enzyme activity, the ADP-Glo™ kit provided by Promega Inc. was used. Buffer A used in the kinase reaction was composed of 60 mM Tris-Cl (pH 7.5), 30 mM MgCl2 and 0.15% BSA. Just before the experiment, 1 mM DTT was prepared by diluting 1 M solution and added thereto.
(§2) To measure the DRAK1 and DRAK2 activity, the substrate MRCL3 peptide and ATP were mixed with the enzymes. After an appropriate period of time, the reaction product ADP was quantitatively analyzed.
(§3) The buffer solution A was used to make a 3× substrate solution of 3× concentration so that the final concentrations of ATP and MRCL3 peptides were 1 uM, respectively, and 2.5 μl of each solution was dispensed into Optiplate 384 (perkin-elmer) microplate.
(§4) The final concentrations of ATP and MRCL3 peptide were made to be 1 uM respectively by using buffer A, followed by preparing a 3× substrate solution. The prepared substrate solution was distributed in Optiplate 384 (Perkin-Elmer) microplate (2.5 ul/well). Then, the compounds of Examples 1˜39 and the compounds of Comparative Examples 1-6, whose concentrations were tripled by the final concentration were distributed thereto (2.5 ul/well). Lastly, DRAK1 or DRAK2 enzyme solution, properly diluted by using buffer A, was added thereto (2.5 ul/well). Centrifugation was performed at 800 rpm for 1 minute, and then enzyme reaction was induced at 30° C.
(§5) 2 hours later, the enzyme reaction was terminated. To eliminate residual ATP, ADP-Glo™ reagent contained in ADP-Glo™ was added to each well at the concentration of 7.5 ul, which was the same amount as the sum of the previously added reagents, followed by centrifugation at the same RPM and time as the above. Additional reaction was induced at room temperature for 40 minutes. To convert the ADP produced by the kinase activity to ATP, 15 ul of kinase detection buffer was added to each well, followed by centrifugation. Five minutes after the centrifugation was completed, the luminescence value of the reaction product was determined using Envision, and the enzyme activity inhibition effect of the compound was measured. Then, IC50 of each compound was determined using Prism program.
(§6) The compounds of Example 1 and Example 19 were used as the experimental group and the compound of Comparative Example 6 was used as the control.
To evaluate DRAK2 inhibition activity of the compound represented by formula 1 according to the number of n, the experiment was performed with the compounds of Example 1, Example 19, Example 40, Comparative Example 7 and W Comparative Example 8 by the same manner as described in Experimental Example 1, leading to the measurement of IC50 to DRAK2.

[2] = molecular target: DRAK1 (Homo sapiens (Human), UniProt Q9UEE5); test: DRAK1 kinase activity inhibition (ADP-Glo, MRCL3 peptide substrate); format: biochemical; details: Table 3; recombinant enzyme, 1 uM ATP, 1 uM MRCL3 peptide, 30° C., 2 hours
DRAK1, sequence (Q9UEE5 whole entry): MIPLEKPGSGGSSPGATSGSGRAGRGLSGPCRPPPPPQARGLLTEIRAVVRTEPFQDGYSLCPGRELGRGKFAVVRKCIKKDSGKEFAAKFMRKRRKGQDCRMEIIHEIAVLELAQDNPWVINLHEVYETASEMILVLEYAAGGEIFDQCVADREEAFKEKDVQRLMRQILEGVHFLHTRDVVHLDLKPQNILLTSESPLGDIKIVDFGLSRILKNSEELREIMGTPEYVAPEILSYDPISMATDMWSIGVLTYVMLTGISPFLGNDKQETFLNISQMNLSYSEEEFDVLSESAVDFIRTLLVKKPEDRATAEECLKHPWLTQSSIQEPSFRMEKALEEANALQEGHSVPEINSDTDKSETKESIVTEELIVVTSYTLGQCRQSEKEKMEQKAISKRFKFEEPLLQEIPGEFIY
Experimental: as §1, §2, §3, §4, §5, §6

[3] = Table 3, recombinant enzyme, 1 uM ATP, 1 uM MRCL3 peptide, 30° C., 2 hours
[4] = Table 5, Experimental Example 3, according to the number of n

DRAK2, sequence (O94768 whole entry): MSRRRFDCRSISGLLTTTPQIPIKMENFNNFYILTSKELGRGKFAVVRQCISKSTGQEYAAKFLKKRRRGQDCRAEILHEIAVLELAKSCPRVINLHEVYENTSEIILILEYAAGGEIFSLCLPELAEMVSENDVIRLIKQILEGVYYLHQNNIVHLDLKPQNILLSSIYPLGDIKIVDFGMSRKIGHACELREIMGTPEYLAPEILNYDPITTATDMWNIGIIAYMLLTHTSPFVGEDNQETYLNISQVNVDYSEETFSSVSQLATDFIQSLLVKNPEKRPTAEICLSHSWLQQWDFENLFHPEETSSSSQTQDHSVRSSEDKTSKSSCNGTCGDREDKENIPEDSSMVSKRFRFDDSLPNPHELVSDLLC

Compound | IC50 [1, 3] [nM] | IC50 [1, 4] [nM] | IC50 [2] [nM]
Cc1ccc(Nc2ncc(C)c(NCCCN)n2)cc1Cl [Example 27, N4-(3-aminopropyl)-N2-(3-chloro-4-methylphenyl)-5-methylpyrimidine-2,4-diamine] | 98 | – | –
NCCNc1nc(Nc2ccc(Cl)cc2)ncc1Cl [Comparative Example 7, N4-(2-aminoethyl)-5-chloro-N2-(4-chlorophenyl)pyrimidine-2,4-diamine, reference compound] | – | 110 | –
NCCCNc1nc(Nc2cc(Cl)cc(Cl)c2)ncc1Cl [Example 2, N4-(3-aminopropyl)-5-chloro-N2-(3,5-dichlorophenyl)pyrimidine-2,4-diamine] | 26 | – | –
Cc1cnc(Nc2ccc(Cl)cc2)nc1NCCN [Comparative Example 8, N4-(2-aminoethyl)-N2-(4-chlorophenyl)-5-methylpyrimidine-2,4-diamine, reference compound] | – | 140 | –
NCCCCNc1nc(Nc2cc(Cl)cc(Cl)c2)ncc1Cl [Example 41, N4-(4-n-aminobutyl)-N2-(3,5-dichlorophenyl)-5-chloropyrimidine-2,4-diamine] | 31 | – | –
Cc1ccc(Nc2ncc(C)c(NCCCN)n2)cc1C [Example 37, N4-(3-aminopropyl)-N2-(3,4-dimethylphenyl)-5-methylpyrimidine-2,4-diamine] | 82 | – | –
NCCCNc1nc(Nc2ccc3c(c2)CCCC3)ncc1Cl [Example 23, N4-(3-aminopropyl)-5-chloro-N2-(5,6,7,8-tetrahydronaphthalene-2-yl)pyrimidine-2,4-diamine] | 15 | – | 160
CCCCCc1ccc(Nc2ncc(Cl)c(NCCCN)n2)cc1 [Example 4, N4-(3-aminopropyl)-5-chloro-N2-(4-pentylphenyl)pyrimidine-2,4-diamine] | 80 | – | –
COc1ccc(Nc2ncc(Cl)c(NCCCN)n2)cc1Cl [Example 18, N4-(3-aminopropyl)-5-chloro-N2-(3-chloro-4-methoxyphenyl)pyrimidine-2,4-diamine] | 35 | – | 180
COc1cnc(Nc2ccc(Cl)cc2)nc1NCCCN [Comparative Example 3, N4-(3-aminopropyl)-N2-(4-chlorophenyl)-5-methoxypyrimidine-2,4-diamine, reference compound] | 870 | – | –
NCCCNc1nc(Nc2ccc(Cl)cc2)ncc1[N+](=O)[O-] [Comparative Example 5, N4-(3-aminopropyl)-N2-(4-chlorophenyl)-5-nitropyrimidine-2,4-diamine, reference compound] | 320 | – | –
NCCCNc1nc(Nc2ccc3c(c2)OCO3)ncc1Cl [Example 20, N4-(3-aminopropyl)-N2-(benzo[d][1,3]dioxol-5-yl)-5-chloropyrimidine-2,4-diamine] | 16 | – | 350
NCCCNc1nc(Nc2ccc3c(c2)OCCO3)ncc1Cl [Example 22, N4-(3-aminopropyl)-5-chloro-N2-(2,3-dihydrobenzo[b][1,4]dioxin-6-yl)pyrimidine-2,4-diamine] | 24 | – | 220
NCCCNc1nc(Nc2ccc(F)c(Cl)c2)ncc1Cl [Example 7, N4-(3-aminopropyl)-5-chloro-N2-(3-chloro-4-fluorophenyl)pyrimidine-2,4-diamine] | 70 | – | 200
Cc1cnc(Nc2ccc(Br)c(C(F)(F)F)c2)nc1NCCCN [Example 32, N4-(3-aminopropyl)-N2-(4-bromo-3-(trifluoromethyl)phenyl)-5-methylpyrimidine-2,4-diamine] | 1400 | – | –
NCCCNc1nc(Nc2ccc3c(c2)CCC3)ncc1Cl [Example 21, N4-(3-aminopropyl)-5-chloro-N2-(2,3-dihydro-1H-indene-5-yl)pyrimidine-2,4-diamine] | 21 | – | 220

Compound | IC50 [1, 3] [nM] | IC50 [1, 4] [nM] | IC50 [2] [nM]
Cc1ccc(Nc2ncc(Cl)c(NCCCN)n2)cc1C [Example 14, N4-(3-aminopropyl)-5-chloro-N2-(3,4-dimethylphenyl)pyrimidine-2,4-diamine] | 37 | – | 220
CCCCCCCCc1ccc(Nc2ncc(Cl)c(NCCCN)n2)cc1 [Example 5, N4-(3-aminopropyl)-5-chloro-N2-(4-octylphenyl)pyrimidine-2,4-diamine] | 740 | – | –
Cc1cnc(Nc2ccc(Oc3ccccc3)cc2)nc1NCCCN [Example 33, N4-(3-aminopropyl)-5-methyl-N2-(4-phenoxyphenyl)pyrimidine-2,4-diamine] | 490 | – | –
NCCCNc1nc(Nc2ccc(C3CCNCC3)cc2)ncc1Cl [Example 26, N4-(3-aminopropyl)-5-chloro-N2-(4-(piperidine-4-yl)phenyl)pyrimidine-2,4-diamine] | 19 | – | –
Cc1cnc(Nc2ccc3c(c2)OCCO3)nc1NCCCN [Example 36, N4-(3-aminopropyl)-N2-(2,3-dihydrobenzo[b][1,4]dioxin-6-yl)-5-methylpyrimidine-2,4-diamine] | 110 | – | –
Cc1cnc(Nc2ccc(F)cc2)nc1NCCCN [Example 28, N4-(3-aminopropyl)-N2-(4-fluorophenyl)-5-methylpyrimidine-2,4-diamine] | 190 | – | –
Cc1cnc(Nc2ccc(Br)cc2)nc1NCCCN [Example 35, N4-(3-aminopropyl)-N2-(4-bromophenyl)-5-methylpyrimidine-2,4-diamine] | 89 | – | –
NCCCNc1ccnc(Nc2ccc(Cl)cc2)n1 [Comparative Example 4, N4-(3-aminopropyl)-N2-(4-chlorophenyl)pyrimidine-2,4-diamine, reference compound] | 1100 | – | –
Cc1cnc(Nc2ccc(Cl)c(Cl)c2)nc1NCCCN [Example 39, N4-(3-aminopropyl)-N2-(3,4-dichlorophenyl)-5-methylpyrimidine-2,4-diamine] | 75 | – | –
Cc1cnc(Nc2ccc(F)c(Cl)c2)nc1NCCCN [Example 38, N4-(3-aminopropyl)-N2-(3-chloro-4-fluorophenyl)-5-methylpyrimidine-2,4-diamine] | 35 | – | –
Cc1cnc(Nc2ccc(F)c(C(F)(F)F)c2)nc1NCCCN [Example 31, N4-(3-aminopropyl)-N2-(4-fluoro-3-(trifluoromethyl)phenyl)-5-methylpyrimidine-2,4-diamine] | 180 | – | –
NCCCNc1nc(Nc2ccc(Cl)cc2)ncc1F [Comparative Example 1, N4-(3-aminopropyl)-N2-(4-chlorophenyl)-5-fluoropyrimidine-2,4-diamine, reference compound] | 300 | – | –
Cc1cnc(Nc2ccc3c(c2)CCCC3)nc1NCCCN [Example 30, N4-(3-aminopropyl)-5-methyl-N2-(5,6,7,8-tetrahydronaphthalene-2-yl)pyrimidine-2,4-diamine] | 160 | – | –
NCCCNc1nc(Nc2ccc(Cl)cc2)ncc1C(F)(F)F [Comparative Example 2, N4-(3-aminopropyl)-N2-(4-chlorophenyl)-5-(trifluoromethyl)pyrimidine-2,4-diamine, reference compound] | 120 | – | –
Cc1cnc(Nc2ccc(S(=O)(=O)c3ccc([N+](=O)[O-])cc3)cc2)nc1NCCCN [Example 34, N4-(3-aminopropyl)-5-methyl-N2-(4-(4-nitrophenylsulfonyl)phenyl)pyrimidine-2,4-diamine] | 340 | – | –
Cc1cnc(Nc2ccc(N3CCNCC3)cc2)nc1NCCCN [Example 29, N4-(3-aminopropyl)-5-methyl-N2-(4-(piperazine-1-yl)phenyl)pyrimidine-2,4-diamine] | 100 | – | –

— patent publication US10647686B2, “Substituted pyrimidines for preventing or treating cancer and inflammatory diseases” (KOREA RESEARCH INSTITUTE OF CHEMICAL TECHNOLOGY, priority 2016, dated 2020)
